Read-outs that look alike come from different tables or passages of the source.
Assays:
GBA1 = biological target: T1, GBA1 (Homo sapiens, UniProt P04062, R534H); experiment: GBA1 activity, recombinant human enzyme (Cerezyme), 4-MU-β-glucoside substrate; type: biochemical;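 also: enzyme activity read out as fluorescence of the 4-MU released from the substrate, measured on a fluorimeter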
T1 construct: purchased Sanofi (Cerezyme)
T1 sequence (P04062 40-536 R534H): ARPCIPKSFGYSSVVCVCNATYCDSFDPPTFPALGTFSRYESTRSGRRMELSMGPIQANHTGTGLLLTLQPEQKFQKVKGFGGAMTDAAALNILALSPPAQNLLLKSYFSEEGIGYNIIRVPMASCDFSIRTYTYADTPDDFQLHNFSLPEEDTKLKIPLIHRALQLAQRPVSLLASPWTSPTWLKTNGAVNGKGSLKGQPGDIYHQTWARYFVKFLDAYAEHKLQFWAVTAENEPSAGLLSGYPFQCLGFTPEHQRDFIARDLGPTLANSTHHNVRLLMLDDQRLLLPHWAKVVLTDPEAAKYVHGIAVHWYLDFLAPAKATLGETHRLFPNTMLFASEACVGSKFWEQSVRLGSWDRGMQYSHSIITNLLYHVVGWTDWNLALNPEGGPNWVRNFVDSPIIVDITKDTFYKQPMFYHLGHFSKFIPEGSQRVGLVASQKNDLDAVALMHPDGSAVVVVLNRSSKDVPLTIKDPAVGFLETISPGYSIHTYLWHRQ

[1] = biological target: T2, glucosylceramide synthase (GCS) (Mus musculus, UniProt O88693); experiment: GCS activity in living macrophage  cells (C6-NBD lipid, TLC readout); type: cell-based
T2 construct: IC50 values for GCS activity were measured using living cells; endogenous in cells
T2 sequence (O88693 1-394): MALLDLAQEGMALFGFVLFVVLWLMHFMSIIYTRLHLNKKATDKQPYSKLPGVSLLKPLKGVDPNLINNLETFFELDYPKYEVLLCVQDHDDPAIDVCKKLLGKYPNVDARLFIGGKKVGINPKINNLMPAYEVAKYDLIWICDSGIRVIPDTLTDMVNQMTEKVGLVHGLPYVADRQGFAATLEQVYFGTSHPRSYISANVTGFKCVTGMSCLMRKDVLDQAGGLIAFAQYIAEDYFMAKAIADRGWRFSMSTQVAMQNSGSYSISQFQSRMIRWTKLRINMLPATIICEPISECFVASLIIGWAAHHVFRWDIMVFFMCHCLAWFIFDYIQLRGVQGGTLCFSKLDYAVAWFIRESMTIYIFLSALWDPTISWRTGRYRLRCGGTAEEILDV

GBA2 = biological target: T3, GBA2 (Homo sapiens, UniProt Q9HCG7); experiment: GBA2 activity, membrane fraction from Gaucher spleen, 4-MU-β-glucoside substrate; type: biochemical;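 also: Read-out is fluorimetric quantification of released 4-MU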
T3 construct: measured using a membrane fraction obtained from Gaucher spleen; from tissue; host or cells: membrane fraction of Gaucher spleen, pre-treated with conduritol B-epoxide
T3 sequence (Q9HCG7 1-927): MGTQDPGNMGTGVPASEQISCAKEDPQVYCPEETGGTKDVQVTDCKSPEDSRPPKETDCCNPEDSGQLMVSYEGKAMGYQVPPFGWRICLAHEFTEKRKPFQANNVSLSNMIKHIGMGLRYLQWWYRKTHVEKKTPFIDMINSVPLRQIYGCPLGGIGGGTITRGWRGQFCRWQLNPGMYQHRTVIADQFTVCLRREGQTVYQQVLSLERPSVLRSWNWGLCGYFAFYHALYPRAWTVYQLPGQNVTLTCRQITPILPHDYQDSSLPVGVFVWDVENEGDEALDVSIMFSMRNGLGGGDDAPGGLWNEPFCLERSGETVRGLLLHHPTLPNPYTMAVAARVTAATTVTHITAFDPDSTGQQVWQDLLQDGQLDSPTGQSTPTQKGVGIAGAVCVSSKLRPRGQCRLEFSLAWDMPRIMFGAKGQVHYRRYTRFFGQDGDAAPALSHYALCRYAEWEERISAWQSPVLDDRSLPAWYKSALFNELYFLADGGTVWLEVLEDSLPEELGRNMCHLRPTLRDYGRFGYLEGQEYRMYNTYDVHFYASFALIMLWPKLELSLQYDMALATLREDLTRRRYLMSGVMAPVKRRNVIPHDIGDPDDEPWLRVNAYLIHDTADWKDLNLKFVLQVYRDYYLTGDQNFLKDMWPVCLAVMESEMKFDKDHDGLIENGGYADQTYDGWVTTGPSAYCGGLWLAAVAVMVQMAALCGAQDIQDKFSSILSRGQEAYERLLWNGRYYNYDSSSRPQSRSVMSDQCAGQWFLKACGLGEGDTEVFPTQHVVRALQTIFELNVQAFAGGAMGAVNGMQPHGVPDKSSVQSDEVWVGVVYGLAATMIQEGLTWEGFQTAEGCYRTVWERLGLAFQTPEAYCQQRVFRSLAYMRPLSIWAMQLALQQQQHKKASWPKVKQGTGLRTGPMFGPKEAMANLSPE

[2] = L-ido configuration series, Example 4
[3] = D-gluco configuration series, Example 3, read-out: GCS [nM] (IC50)
[4] = D-gluco configuration series, Example 3

Row | IC50 (GBA1) | IC50 ([1]; read-out: GCS [nM] (IC50)) | IC50 (GBA2; [2]) | IC50 [1, 3] | IC50 (GBA2; [4]) | IC50 (GBA2) | IC50 ([1]; L-ido configuration series, Example 4, read-out: GCS [nM] (IC50)) | IC50 ([1]; read-out: inhibitory potency towards GCS, expressed as IC50) | SMILES
1 | 8000 nM | 5 nM | 0.4 nM |  |  |  |  |  | OC[C@H]1[C@@H](O)[C@H](O)[C@@H](O)CN1CCCCCOCc1ccc(-c2ccccc2)cc1F [Compound 46]
2 | 700 nM |  |  | 50 nM | 2 nM |  |  |  | N#Cc1cccc(-c2ccc(COCCCCCN3C[C@H](O)[C@@H](O)[C@H](O)[C@H]3CO)cc2)c1 [Compound 29]
3 | 350 nM | 150 nM |  |  | 3 nM |  |  |  | N#Cc1ccc(-c2ccc(COCCCCCN3C[C@H](O)[C@@H](O)[C@H](O)[C@H]3CO)cc2)cc1 [Compound 30]
4 | 250 nM | 25 nM |  |  |  | 2 nM |  |  | OC[C@@H]1[C@@H](O)[C@H](O)[C@@H](O)CN1CCCCCOCc1ccc(-c2cccc(F)c2)cc1 [Compound 26]
5 | 1250 nM | 50 nM |  |  | 3 nM |  |  |  | OC[C@@H]1[C@@H](O)[C@H](O)[C@@H](O)CN1CCCCCOCc1ccccc1-c1ccccc1 [Compound 14]
6 | 800 nM | 20 nM |  |  | 15 nM |  |  |  | OC[C@@H]1[C@@H](O)[C@H](O)[C@@H](O)CN1CCCCCOCc1ccc(-c2cc(C(F)(F)F)cc(C(F)(F)F)c2)cc1 [Compound 22]
7 | 15000 nM | 25 nM | 3 nM |  |  |  |  |  | OC[C@H]1[C@@H](O)[C@H](O)[C@@H](O)CN1CCCCCOCc1ccccc1-c1ccccc1 [Compound 40]
8 | 600 nM | 50 nM |  |  |  | 0.7 nM |  |  | COc1ccccc1-c1ccc(COCCCCCN2C[C@H](O)[C@@H](O)[C@H](O)[C@H]2CO)cc1 [Compound 31]
9 | 3000 nM | 750 nM |  |  | 5 nM |  |  |  | OC[C@@H]1[C@@H](O)[C@H](O)[C@@H](O)CN1CCCCCOCc1ccc(-c2ccc(F)nc2)cc1 [Compound 15]
10 | 500 nM | 25 nM |  |  | 2 nM |  |  |  | OC[C@@H]1[C@@H](O)[C@H](O)[C@@H](O)CN1CCCCCOCc1ccc(-c2ccc(Cl)cc2)cc1 [Compound 24]
11 | 2000 nM | 150 nM |  |  | 4 nM |  |  |  | OC[C@@H]1[C@@H](O)[C@H](O)[C@@H](O)CN1CCCCCOCc1ccc(-c2ccnc(F)c2)cc1 [Compound 16]
12 | 2500 nM | 25 nM |  |  | 10 nM |  |  |  | COc1ccc(-c2ccc(COCCCCCN3C[C@H](O)[C@@H](O)[C@H](O)[C@H]3CO)cc2)cc1 [Compound 33]
13 | 3000 nM | 25 nM |  |  |  | 10 nM |  |  | OC[C@@H]1[C@@H](O)[C@H](O)[C@@H](O)CN1CCCCCOCc1ccc(-c2ccc3c(c2)OCCCO3)cc1 [Compound 19]
14 | 70 nM |  |  | 25 nM | 0.5 nM |  |  |  | Cc1ccccc1-c1ccc(COCCCCCN2C[C@H](O)[C@@H](O)[C@H](O)[C@H]2CO)cc1 [Compound 34]
15 | 600 nM | 150 nM |  |  | 5 nM |  |  |  | N#Cc1ccccc1-c1ccc(COCCCCCN2C[C@H](O)[C@@H](O)[C@H](O)[C@H]2CO)cc1 [Compound 28]
16 | 500 nM | 200 nM |  |  |  | 2 nM |  |  | OC[C@@H]1[C@@H](O)[C@H](O)[C@@H](O)CN1CC(F)(F)CCCOCc1ccc(-c2ccccc2)cc1 [Compound 11]
17 | 12500 nM | 15 nM |  |  |  | 2 nM |  |  | OC[C@@H]1[C@@H](O)[C@H](O)[C@@H](O)CN1CCCC(F)(F)COCc1ccc(-c2ccccc2)cc1 [Compound 10]
18 | 600 nM | 74 nM |  |  | 2 nM |  |  |  | OC[C@@H]1[C@@H](O)[C@H](O)[C@@H](O)CN1CCCCCOCc1ccc(-c2ccccc2F)cc1 [Compound 25]

Row | IC50 (GBA1) | IC50 ([1]; read-out: GCS [nM] (IC50)) | IC50 (GBA2; [2]) | IC50 [1, 3] | IC50 (GBA2; [4]) | IC50 (GBA2) | IC50 ([1]; L-ido configuration series, Example 4, read-out: GCS [nM] (IC50)) | IC50 ([1]; read-out: inhibitory potency towards GCS, expressed as IC50) | SMILES
19 | 200 nM | 25 nM |  |  | 0.12 nM |  |  |  | OC[C@@H]1[C@@H](O)[C@H](O)[C@@H](O)CN1CCCCCOCc1ccc(-c2ccccc2)cc1C(F)(F)F [Compound 8]
20 | 200 nM | 25 nM |  |  |  |  |  |  | OC[C@@H]1[C@@H](O)[C@H](O)[C@@H](O)CN1CCCCCOCc1ccc(-c2ccccc2)c(F)c1 [Compound 7]
21 | 250 nM | 25 nM |  |  |  |  |  |  | OC[C@@H]1[C@@H](O)[C@H](O)[C@@H](O)CN1CCCCCOCc1ccc(-c2ccccc2)cc1F [Compound 6]
22 | 500000 nM |  | 2 nM |  |  |  |  |  | OC[C@H]1[C@@H](O)[C@H](O)[C@@H](O)CN1CC(F)(F)CCCOCc1ccc(-c2ccccc2)cc1 [Compound 42]
23 | 20000 nM | 75 nM | 2 nM |  |  |  |  |  | OC[C@H]1[C@@H](O)[C@H](O)[C@@H](O)CN1CCCCCOCc1cccc(-c2ccccc2)c1 [Compound 41]
24 | 5000 nM | 3 nM | 0.1 nM |  |  |  |  |  | OC[C@H]1[C@@H](O)[C@H](O)[C@@H](O)CN1CCCCCOCc1ccc(-c2ccccc2)cc1C(F)(F)F [Compound 44]
25 | 3000 nM | 25 nM |  |  |  | 10 nM |  |  | OC[C@@H]1[C@@H](O)[C@H](O)[C@@H](O)CN1CCCCCOCc1ccc(-c2ccc3c(c2)OCCO3)cc1 [Compound 20]
26 | 800 nM | 20 nM |  |  | 10 nM |  |  |  | OC[C@@H]1[C@@H](O)[C@H](O)[C@@H](O)CN1CCCCCOCc1ccc(-c2ccc(C(F)(F)F)cc2)cc1 [Compound 23]
27 | 2500 nM | 25 nM |  |  |  | 10 nM |  |  | OC[C@@H]1[C@@H](O)[C@H](O)[C@@H](O)CN1CCCCCOCc1ccc(-c2ccc3c(c2)OCO3)cc1 [Compound 21]
28 | 6000 nM | 3 nM | 0.1 nM |  |  |  |  |  | OC[C@H]1[C@@H](O)[C@H](O)[C@@H](O)CN1CCCCCOCc1ccc(-c2ccccc2)c(C(F)(F)F)c1 [Compound 45]
29 | 10000 nM |  | 2 nM |  |  |  | 30 nM |  | C[C@H](OCCCCCN1C[C@H](O)[C@@H](O)[C@H](O)[C@@H]1CO)c1ccc(-c2ccccc2)cc1 [Compound 38]
30 | 3000 nM | 200 nM |  |  | 10 nM |  |  |  | OC[C@@H]1[C@@H](O)[C@H](O)[C@@H](O)CN1CCCCCOCc1ccc(-c2cccnc2)cc1 [Compound 17]
31 | 2500 nM | 150 nM |  |  | 20 nM |  |  |  | COc1cccc(-c2ccc(COCCCCCN3C[C@H](O)[C@@H](O)[C@H](O)[C@H]3CO)cc2)c1 [Compound 32]
32 | 400 nM | 25 nM |  |  | 1 nM |  |  |  | OC[C@@H]1[C@@H](O)[C@H](O)[C@@H](O)CN1CCCCCOCc1ccc(-c2ccc(F)cc2)cc1 [Compound 27]
33 | 1500 nM | 200 nM |  |  | 3 nM |  |  |  | OC[C@@H]1[C@@H](O)[C@H](O)[C@@H](O)CN1CCCCCOCc1ccc(-c2ccccc2)cn1 [Compound 12]
34 | 100 nM | 25 nM |  |  |  |  |  |  | OC[C@@H]1[C@@H](O)[C@H](O)[C@@H](O)CN1CCCCCOCc1ccc(-c2ccccc2)c(C(F)(F)F)c1 [Compound 9]
35 | 10000 nM |  |  | 40 nM |  |  |  |  | C[C@@H](OCCCCCN1C[C@H](O)[C@@H](O)[C@H](O)[C@H]1CO)c1ccc(-c2ccccc2)cc1 [Compound 5]
36 | 10000 nM |  |  | 50 nM |  |  |  | 100 nM | C[C@H](OCCCCCN1C[C@H](O)[C@@H](O)[C@H](O)[C@H]1CO)c1ccc(-c2ccccc2)cc1 [Compound 4]

— patent US10590082B2, “N-(5-((aryl or heteroaryl)methyloxy)pentyl)-substituted iminosugars as inhibitors of glucosylceramide synthase” (Academisch Medisch Centrum, priority 2014, dated 2020)
